Test results: patent US10709699B2, “Pyridone derivative pharmaceutical composition and preparation method thereof” (Jiangsu Hengrui Medicine Co., Ltd., priority 2016, dated 2020)

Experiments:
[1] = Particle size of the raw material by Malvern laser particle size analyzer (Mastersizer 2000); type: physicochemical; settings: for Particle size d (0.5) of the raw material / Particle size d (0.9) of the raw material: in µm (unit assumed)
Method: 2-((2-Fluoro-4-iodophenyl)amino)-1-methyl-4-((6-methylpyridin-3-yl)oxy)-6-oxo-1,6-dihydropyridine-3-carboxamide p-toluenesulfonate (hereinafter referred to as compound A) was screened by an 80 mesh sieve, and micronized by a Mcone jet mill (micronizing pressure: 4 bar, sample introduction pressure: 6 bar), respectively. The particle size was measured directly with a Malvern laser particle size analyzer (Mastersizer 2000).

Solubility = type: physicochemical; settings: compound A and its salts
[2] = raw material micronized by a jet mill (4 bar)
[3] = raw material screened by an 80 mesh sieve

particle size of the raw material ([1]; raw material micronized by a jet mill): less than 10 μm
Particle size d (0.5) of the raw material [1, 2]: 2.587
Particle size d (0.9) of the raw material [1, 2]: 5.494
Particle size d (0.5) of the raw material [1, 3]: 4.940
Particle size d (0.9) of the raw material [1, 3]: 14.148
solubility (Solubility): low
Structure (SMILES): Cc1ccc(Oc2cc(=O)n(C)c(Nc3ccc(I)cc3F)c2C(N)=O)cn1.Cc1ccc(S(=O)(=O)O)cc1 [compound A, 2-((2-fluoro-4-iodophenyl)amino)-1-methyl-4-((6-methylpyridin-3-yl)oxy)-6-oxo-1,6-di hydropyridine-3-carboxamide p-toluenesulfonate]
